According to patent US20190315823A1, “SMALL CATIONIC ANTI-BIOFILM AND IDR PEPTIDES” (priority 2013, published 2019):
Ends that are not written are not given here.

Key:
[1] = system: methicillin resistant Staphylococcus aureus (MRSA) biofilm; settings: approximate peptide concentration […] (around 3 μg/ml); compared to untreated samples
Outline: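 Peptide was present from inoculation onward, with bacteria seeded at 1/100 from overnight cultures into BM2 biofilm medium or Luria Broth. Crystal violet staining of surface-attached cells (A595) quantified biofilm reduction at 22–46 h. K. pneumoniae was additionally screened in a real-time Bioflux flow device for some peptides.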

[2] = system: LPS-stimulated human peripheral blood mononuclear cells (IL1-β); type: cell-based; settings: Table 12, cells stimulated with 10 ng/ml LPS; for IL1β Production: LPS alone 1313 (HH2 derivatives), 1927 (1018 derivatives), 2455 (1002 and hybrid peptides) pg/ml
[3] = system: human peripheral blood mononuclear cells (MCP-1); assay: SPOT-synthesized derivative screen: production of chemokine MCP-1; type: cell-based; settings: Table 12, No LPS, human PBMC, peptide at ~18-24 μM; for MCP1: background subtracted 139 (HH2 derivatives), 170 (1018 derivatives), 242 (1002 and hybrid peptides) pg/ml
Outline: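 MCP-1 was quantified by capture ELISA in cleared culture supernatants of treated human peripheral blood mononuclear cells. Cells came from heparinized volunteer blood via Ficoll gradient and were seeded at 0.75 to 1×10^6 cells/ml (37 °C, 5% CO2).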

Row | Substance | % Biofilm inhibition [1] | Fold change in IL1β relative to no peptide LPS stimulated cells [2] | IL1β Production [2] | Fold increase in MCP1 cf. untreated cells [3] | MCP1 [3]
1 | 1002-A9: single substituted 1002 peptide (VQRWLIVWAIRK-NH2) [Peptide 1002-A9] | 58% | 0.05 | 127 pg/mL | 14.4 | 3239.9 pg/mL
2 | HH2-R3: single substituted HH2 peptide (VQRRIRVAVIRA-NH2) | 0% | 1.33 | 1746 pg/mL | 60 | 9987 pg/mL
3 | 1002-K8: single substituted 1002 peptide (VQRWLIVKRIRK-NH2) [Peptide 1002-K8] | 0% | 0.66 | 1632 pg/mL | 0.9 | -36.2 pg/mL
4 | 1002-R2: single substituted 1002 peptide (VRRWLIVWRIRK-NH2) [Peptide 1002-R2] | 60% | 0.05 | 127 pg/mL | 4.5 | 840.0 pg/mL
5 | 1018-W12: single substituted 1018 peptide (VRLIVAVRIWRW-NH2) [Peptide 1018-W12] | 65% | 0.34 | 441 pg/mL | 1.5 | 79 pg/mL
6 | 1018-R1: single substituted 1018 peptide (RRLIVAVRIWRR-NH2) [Peptide 1018-R1] | 46% | 0.13 | 176 pg/mL | 5.9 | 832 pg/mL
7 | 1018-R4: single substituted 1018 peptide (VRLRVAVRIWRR-NH2) [Peptide 1018-R4] | 58% | 0.47 | 615 pg/mL | 0.6 | -65 pg/mL
8 | 1018-K10: single substituted 1018 peptide (VRLIVAVRIKRR-NH2) [Peptide 1018-K10] | 63% | 0.24 | 310 pg/mL | 3.3 | 390 pg/mL
9 | HH2-K11: single substituted HH2 peptide (VQLRIRVAVIKA-NH2) | 43% | 1.21 | 1593 pg/mL | 18 | 2884 pg/mL
10 | 1018-R9: single substituted 1018 peptide (VRLIVAVRRWRR-NH2) [Peptide 1018-R9] | 59% | 0.24 | 310 pg/mL | 0.9 | -10 pg/mL
11 | 1002-A10: single substituted 1002 peptide (VQRWLIVWRARK-NH2) [Peptide 1002-A10] | 45% | 0.05 | 127 pg/mL | 2.0 | 245.4 pg/mL
12 | HH2-Q6: single substituted HH2 peptide (VQLRIQVAVIRA-NH2) | 35% | 0.83 | 1088 pg/mL | 191 | 32306 pg/mL
13 | 1018-Q5: single substituted 1018 peptide (VRLIQAVRIWRR-NH2) [Peptide 1018-Q5] | 13% | 1.03 | 1354 pg/mL | 0.7 | -54 pg/mL
14 | HH2-Q3: single substituted HH2 peptide (VQQRIRVAVIRA-NH2) | 28% | 0.87 | 1141 pg/mL | 6.8 | 989 pg/mL
15 | 1002-I8: single substituted 1002 peptide (VQRWLIVIRIRK-NH2) [Peptide 1002-I8] | 69% | 0.06 | 144 pg/mL | 6.7 | 1393.2 pg/mL
16 | HH2-A4: single substituted HH2 peptide (VQLAIRVAVIRA-NH2) | 42% | 1.52 | 2000 pg/mL | 5.0 | 672 pg/mL
17 | 1002-G7: single substituted 1002 peptide (VQRWLIGWRIRK-NH2) [Peptide 1002-G7] | 54% | 0.14 | 353 pg/mL | 0.9 | -36.2 pg/mL
18 | HH2-G2: single substituted HH2 peptide (VGLRIRVAVIRA-NH2) | 66% | 1.07 | 1400 pg/mL | 3.8 | 471 pg/mL
19 | 1018-G4: single substituted 1018 peptide (VRLGVAVRIWRR-NH2) [Peptide 1018-G4] | 63% | 0.39 | 511 pg/mL | 1.2 | 32 pg/mL
20 | HH2-A3: single substituted HH2 peptide (VQARIRVAVIRA-NH2) | 52% | 1.44 | 1886 pg/mL | 1.3 | 59 pg/mL
21 | 1002-G6: single substituted 1002 peptide (VQRWLGVWRIRK-NH2) [Peptide 1002-G6] | 26% | 0.45 | 1098 pg/mL | 0.9 | -36.2 pg/mL
22 | HH2-Q8: single substituted HH2 peptide (VQLRIRVQVIRA-NH2) | 65% | 0.97 | 1279 pg/mL | 9.4 | 1421 pg/mL
23 | 1018-K8: single substituted 1018 peptide (VRLIVAVKIWRR-NH2) [Peptide 1018-K8] | 65% | 0.18 | 242 pg/mL | 8.3 | 1237 pg/mL
24 | 1018-K4: single substituted 1018 peptide (VRLKVAVRIWRR-NH2) [Peptide 1018-K4] | 41% | 0.30 | 393 pg/mL | 1.2 | 40 pg/mL
25 | 1002-I12: single substituted 1002 peptide (VQRWLIVWRIRI-NH2) [Peptide 1002-I12] | 66% | 0.05 | 127 pg/mL | 0.9 | -36.2 pg/mL
26 | HH2-K4: single substituted HH2 peptide (VQLKIRVAVIRA-NH2) | 65% | 0.58 | 759 pg/mL | 10 | 1553 pg/mL
27 | 1018-L4: single substituted 1018 peptide (VRLLVAVRIWRR-NH2) [Peptide 1018-L4] | 64% | 0.10 | 127 pg/mL | 0.9 | -10 pg/mL
28 | 1018-L10: single substituted 1018 peptide (VRLIVAVRILRR-NH2) [Peptide 1018-L10] | 38% | 0.10 | 127 pg/mL | 0.7 | -60 pg/mL
29 | HH2-G10: single substituted HH2 peptide (VQLRIRVAVGRA-NH2) | 58% | 1.06 | 1391 pg/mL | 72 | 12063 pg/mL
30 | HH2-K6: single substituted HH2 peptide (VQLRIKVAVIRA-NH2) | 64% | 0.80 | 1055 pg/mL | 142 | 23989 pg/mL
